Read-outs that look alike come from different tables or passages of the source.
Assays:
[1] = system: johnsongrass; assay: Test C pre-/postemergence herbicide test; assay type: in vivo, Sorghum halepense; conditions: for Plant response rating (0 = no effect, 100 = complete control), Johnsongrass / Plant response rating, Johnsongrass: preemergence
In short: (§1)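 Visual ratings on a 0–100 scale (100 = complete control) made versus untreated controls after 12 to 14 greenhouse days. Test chemicals, formulated in surfactant-containing non-phytotoxic solvent, applied preemergence to planted seeds or postemergence to 1- to 4-leaf plants (2 to 18 cm).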

[2] = system: corn; assay: Test C pre-/postemergence herbicide test; assay type: in vivo, Zea mays; conditions: for Plant response rating (0 = no effect, 100 = complete control), Corn / Plant response rating, Corn: preemergence
In short: as §1

[3] = system: morningglory; assay: Test C pre-/postemergence herbicide test; assay type: in vivo, Ipomoea coccinea; design: key to Plant response rating, Morningglory: 0 = no effect, 100 = complete control; conditions: for Plant response rating (0 = no effect, 100 = complete control), Morningglory / Plant response rating, Morningglory: preemergence
In short: as §1

[4] = system: pigweed; assay: Test C pre-/postemergence herbicide test; assay type: in vivo, Amaranthus retroflexus; conditions: for Plant response rating (0 = no effect, 100 = complete control), Pigweed / Plant response rating, Pigweed: preemergence
In short: as §1

[5] = system: Surinam grass; assay: Test C pre-/postemergence herbicide test; assay type: in vivo, Urochloa decumbens; conditions: for Plant response rating (0 = no effect, 100 = complete control), Surinam Grass / Plant response rating, Surinam Grass: preemergence
In short: as §1

[6] = system: eastern black nightshade; assay: Test C pre-/postemergence herbicide test; assay type: in vivo, Solanum ptycanthum; conditions: for Plant response rating (0 = no effect, 100 = complete control), Nightshade / Plant response rating, Nightshade: preemergence
In short: as §1

[7] = system: morningglory; assay: Test A pre-/postemergence herbicide test; assay type: in vivo, Ipomoea spp.; conditions: Ipomoea, 240 h; for pest or weed control at 500 g/ha: 500 g ai/ha; for pest or weed control at 2000 g/ha: 2000 g ai/ha
In short: (§2)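 Visual injury scores on a 0–100 scale (100 = complete control) taken about ten days post-treatment in greenhouse against untreated controls; dash means no result. Treatments: preemergence soil spray and postemergence spray to runoff on one- to two-leaf plants 2 to 10 cm tall, surfactant-containing formulation.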

[8] = system: velvetleaf; assay: Test C pre-/postemergence herbicide test; assay type: in vivo, Abutilon theophrasti; conditions: for Plant response rating (0 = no effect, 100 = complete control), Velvetleaf / Plant response rating, Velvetleaf: preemergence
In short: as §1

[9] = system: redroot pigweed; assay: Test A pre-/postemergence herbicide test; assay type: in vivo, Amaranthus retroflexus; conditions: Amaranthus retroflexus, 240 h; for pest or weed control at 500 g/ha: 500 g ai/ha; for pest or weed control at 2000 g/ha: 2000 g ai/ha
In short: as §2

[10] = system: cocklebur; assay: Test C pre-/postemergence herbicide test; assay type: in vivo, Xanthium strumarium; conditions: for Plant response rating (0 = no effect, 100 = complete control), Cocklebur / Plant response rating, Cocklebur: preemergence
In short: as §1

[11] = Preemergence, 500 g ai/ha, scale 0 to 100, 0 no effect, 100 complete control
[12] = post-emergence, Postemergence, 0 to 100 scale, 0 no effect, 100 complete control, read-out: Plant response rating, Morningglory
[13] = post-emergence, Postemergence, 0 to 100 scale, 0 no effect, 100 complete control, read-out: Plant response rating, Pigweed
[14] = 500 g ai/ha, scale 0 to 100 (0 no effect, 100 complete control), visual, 12 to 14 days

CCn1nc(C(C)(C)C)cc1C(=O)Nc1cccc2c1CN(C)C2=O [Compound 55, N-(2,3-dihydro-2-methyl-1-oxo-1H-isoindol-4-yl)-3-(1,1-dimethylethyl)-1-ethyl-1H-pyrazole-5-carboxamide]
Plant response rating (0 = no effect, 100 = complete control), Johnsongrass ([1]; 62 g ai/ha): 0 | Johnsongrass plant response rating [1, 11]: 100 | pest or weed control at 125 g/ha ([1]; Sorghum halepense, pre-emergence, 125 g ai/ha, scale 0 (no effect) to 100 (complete control), visual, 12 to 14 days, read-out: Plant response rating, Johnsongrass): 75% | pest or weed control at 250 g/ha ([1]; Sorghum halepense, pre-emergence, 250 g ai/ha, scale 0 to 100 (0 no effect, 100 complete control), visual, 12 to 14 days, read-out: Plant response rating, Johnsongrass): 95% | Plant response rating (0 = no effect, 100 = complete control), Corn ([2]; 62 g ai/ha): 0 | Corn plant response rating [2, 11]: 0 | Corn plant response rating (crop injury, 0 = no effect, 100 = complete kill) at 125 g/ha ([2]; Zea mays, pre-emergence, 312 h, 125 g ai/ha, scale 0 (no effect) to 100 (complete control), visual, 12 to 14 days): 0% | Corn plant response rating (crop injury, 0 = no effect, 100 = complete kill) at 250 g/ha ([2]; Zea mays, pre-emergence, 312 h, 250 g ai/ha, scale 0 to 100 (0 no effect, 100 complete control), visual, 12 to 14 days): 0% | Plant response rating (0 = no effect, 100 = complete control), Morningglory ([3]; 62 g ai/ha): 0 | pest or weed control at 125 g/ha ([3]; Ipomoea, pre-emergence, 125 g ai/ha, scale 0 (no effect) to 100 (complete control), visual, 12 to 14 days, read-out: Plant response rating, Morningglory): 0% | pest or weed control at 250 g/ha ([3]; Ipomoea, pre-emergence, 250 g ai/ha, scale 0 to 100 (0 no effect, 100 complete control), visual, 12 to 14 days, read-out: Plant response rating, Morningglory): 20% | Morningglory plant response rating [3, 11]: 75 | Plant response rating (0 = no effect, 100 = complete control), Pigweed ([4]; 62 g ai/ha): 95 | pest or weed control at 125 g/ha ([4]; Amaranthus retroflexus, pre-emergence, 125 g ai/ha, scale 0 (no effect) to 100 (complete control), visual, 12 to 14 days, read-out: Plant response rating, Pigweed): 95% | pest or weed control at 250 g/ha ([4]; Amaranthus retroflexus, pre-emergence, 250 g ai/ha, scale 0 to 100 (0 no effect, 100 complete control), visual, 12 to 14 days, read-out: Plant response rating, Pigweed): 95% | Pigweed plant response rating [4, 11]: 95 | Plant response rating (0 = no effect, 100 = complete control), Surinam Grass ([5]; 62 g ai/ha): 0 | Surinam Grass plant response rating [5, 11]: 100 | pest or weed control at 125 g/ha ([5]; Urochloa decumbens, pre-emergence, 312 h, 125 g ai/ha, scale 0 (no effect) to 100 (complete control), visual, 12 to 14 days, read-out: Plant response rating, Surinam Grass): 25% | pest or weed control at 250 g/ha ([5]; Urochloa decumbens, pre-emergence, 312 h, 250 g ai/ha, scale 0 to 100 (0 no effect, 100 complete control), visual, 12 to 14 days, read-out: Plant response rating, Surinam Grass): 65% | Plant response rating (0 = no effect, 100 = complete control), Nightshade ([6]; 62 g ai/ha): 15 | Nightshade plant response rating [6, 11]: 95 | pest or weed control at 125 g/ha ([6]; pre-emergence, 125 g ai/ha, scale 0 (no effect) to 100 (complete control), visual, 12 to 14 days, read-out: Plant response rating, Nightshade): 60% | pest or weed control at 250 g/ha ([6]; pre-emergence, 250 g ai/ha, scale 0 to 100 (0 no effect, 100 complete control), visual, 12 to 14 days, read-out: Plant response rating, Nightshade): 90% | pest or weed control at 500 g/ha [7, 12]: 20% | pest or weed control at 2000 g/ha [7, 12]: 25% | pest or weed control at 500 g/ha ([7]; pre-emergence, Preemergence, visual rating, 0 to 100 scale (0 no effect, 100 complete control), read-out: Morningglory plant response rating): 5% | pest or weed control at 2000 g/ha ([7]; pre-emergence, Preemergence, 0 to 100 scale, 0 no effect, 100 complete control, read-out: Morningglory plant response rating): 20% | Plant response rating (0 = no effect, 100 = complete control), Velvetleaf ([8]; 62 g ai/ha): 0 | pest or weed control at 125 g/ha ([8]; Abutilon theophrasti, pre-emergence, 125 g ai/ha, scale 0 (no effect) to 100 (complete control), visual, 12 to 14 days, read-out: Plant response rating, Velvetleaf): 0% | pest or weed control at 250 g/ha ([8]; Abutilon theophrasti, pre-emergence, 250 g ai/ha, scale 0 to 100 (0 no effect, 100 complete control), visual, 12 to 14 days, read-out: Plant response rating, Velvetleaf): 15% | Velvetleaf plant response rating [8, 11]: 100 | pest or weed control at 500 g/ha [9, 13]: 90% | pest or weed control at 2000 g/ha [9, 13]: 100% | pest or weed control at 500 g/ha ([9]; pre-emergence, Preemergence, visual rating, 0 to 100 scale (0 no effect, 100 complete control), read-out: Pigweed plant response rating): 100% | pest or weed control at 2000 g/ha ([9]; pre-emergence, Preemergence, 0 to 100 scale, 0 no effect, 100 complete control, read-out: Pigweed plant response rating): 100% | Plant response rating (0 = no effect, 100 = complete control), Cocklebur ([10]; 62 g ai/ha): 0 | pest or weed control at 125 g/ha ([10]; Xanthium strumarium, pre-emergence, 312 h, 125 g ai/ha, scale 0 (no effect) to 100 (complete control), visual, 12 to 14 days, read-out: Plant response rating, Cocklebur): 0% | pest or weed control at 250 g/ha ([10]; Xanthium strumarium, pre-emergence, 312 h, 250 g ai/ha, scale 0 to 100 (0 no effect, 100 complete control), visual, 12 to 14 days, read-out: Plant response rating, Cocklebur): 0% | pest or weed control at 500 g/ha ([10]; Xanthium strumarium, pre-emergence, 312 h, Preemergence, 500 g ai/ha, scale 0 to 100, 0 no effect, 100 complete control, read-out: Cocklebur plant response rating): 0%

C=CCNC(=O)c1cccc(NC(=O)c2nn(C(C)(C)C)nc2CC)c1 [Compound 414]
Plant response rating, Johnsongrass ([1]; 62 g ai/ha, scale 0 to 100): 95 | Plant response rating (0 = no effect, 100 = complete control), Johnsongrass ([1]; 125 g ai/ha): 95 | Plant response rating, Johnsongrass ([1]; 250 g ai/ha, scale 0-100): 100 | Plant response rating, Johnsongrass [1, 14]: 100 | Plant response rating, Corn ([2]; 62 g ai/ha, scale 0 to 100): 0 | Plant response rating (0 = no effect, 100 = complete control), Corn ([2]; 125 g ai/ha): 0 | Plant response rating, Corn ([2]; 250 g ai/ha, scale 0-100): 50 | Plant response rating, Corn [2, 14]: 80 | Plant response rating, Morningglory ([3]; 62 g ai/ha, scale 0 to 100): 10 | Plant response rating (0 = no effect, 100 = complete control), Morningglory ([3]; 125 g ai/ha): 55 | Plant response rating, Morningglory [3, 14]: 95 | Plant response rating, Pigweed ([4]; 62 g ai/ha, scale 0 to 100): 100 | Plant response rating (0 = no effect, 100 = complete control), Pigweed ([4]; 125 g ai/ha): 100 | Plant response rating, Pigweed [4, 14]: 100 | Plant response rating, Surinam Grass ([5]; 62 g ai/ha, scale 0 to 100): 0 | Plant response rating (0 = no effect, 100 = complete control), Surinam Grass ([5]; 125 g ai/ha): 80 | Plant response rating, Surinam Grass [5, 14]: 100 | Plant response rating, Nightshade ([6]; 62 g ai/ha, scale 0 to 100): 85 | Plant response rating (0 = no effect, 100 = complete control), Nightshade ([6]; 125 g ai/ha): 90 | Plant response rating, Nightshade [6, 14]: 100 | Plant response rating, Velvetleaf ([8]; 62 g ai/ha, scale 0 to 100): 90 | Plant response rating (0 = no effect, 100 = complete control), Velvetleaf ([8]; 125 g ai/ha): 100 | Plant response rating, Velvetleaf [8, 14]: 100 | Plant response rating, Cocklebur ([10]; 62 g ai/ha, scale 0 to 100): 0 | Plant response rating (0 = no effect, 100 = complete control), Cocklebur ([10]; 125 g ai/ha): 15 | Plant response rating, Cocklebur ([10]; 250 g ai/ha, scale 0-100): 20 | Plant response rating, Cocklebur [10, 14]: 30

From patent publication US20060069132A1, “Azolecarboxamide herbicides” (priority 2004, published 2006)
